Assay results published in patent US20250195604A1, “Compositions and Methods of Treatment of Certain Vasculitis Syndromes” (Soligenix, Inc., priority 2023, published 2025).
No end group written: not given here.

What was measured:
[1] = system: human blood challenged with LPS; assay: LPS challenge of human blood exposed to dusquetide in vitro; type: cell-based; conditions: dusquetide exposure in vitro
From the text: The innate immune system involves numerous cell types distributed throughout the body in both circulating and tissue-resident compartments. The interaction of all the cells defines the aggregate response. […] Nevertheless, cellular and molecular studies with individual cell types or sub-groups of cell types are informative but must be interpreted cautiously when used to predict the behavior of the system in vivo. […] By contrast, when dusquetide exposure of either mouse or human blood occurs in vitro, although the TNFα response to LPS challenge is unaffected, the MCP-1 response is reduced. The responses of mouse and human primary blood cells to dusquetide in this in vitro setting are quantitatively and qualitatively similar.

[2] = system: MRSA, S. aureus, K. pneumoniae, B. pseudomallei; conditions: mouse, in vivo; cited from earlier work
[3] = system: mouse macrophage-like cell line; conditions: medium of dusquetide-incubated splenocytes, North 2016; cited from earlier work
[4] = system: NHP blood cultured with LPS; assay: Ex vivo LPS challenge of NHP blood after in vivo dusquetide; conditions: for IL-1β response to LPS / MIP-la response to LPS: NHP
From the text: Further studies have explored the ability of blood cells to respond to a pathogen (or pathogen-like) challenge in vitro after prior exposure to dusquetide in vivo—an “ex vivo” test system that provides information about the “responsiveness” of the innate defense system. The responsiveness of mouse and NHP innate defense systems have been characterized by measuring changes in cytokine and chemokine production following ex vivo challenge of blood cells with LPS. In general, no evidence of broad-spectrum activation was observed.

[5] = system: mucositis (oral and lower GI tract); conditions: mice after chemotherapy, Kudrimoti 2016; cited from earlier work
[6] = Phase 1 studies, safety of IV dusquetide; type: in vivo, human; conditions: dose levels of 0.15 to 8.0 mg/kg
Method: The dosage form of dusquetide is an aqueous, aseptically processed, sterile solution for injection. Each vial contains 5 mL of a 60 mg/mL solution (300 mg of dusquetide). Dusquetide is formulated in water for injection and pH adjusted to a target value of 6.0. The preferred formulation of the present invention contains no excipients and has an osmolality of ˜300 mOsm/kg. Dusquetide drug product is diluted in sterile saline to the appropriate concentration for injection, determined on a mg/kg basis by the recipient's weight at a dose level of 1.5 mg/kg. Diluted dusquetide is administered as an intravenous (IV) infusion in 25 mL over 4 minutes, once every third day.
In a Phase 1 study, patients received single ascending doses (0.15 to 8.0 mg/kg) and multiple ascending doses (daily 7× 0.5 to 6.5 mg/kg) of dusquetide as 4-minutes IV infusions. To determine the pharmacodynamic profile of dusquetide, cytokine and chemokine analytes were quantified after 4 h of in vitro stimulation of whole blood with LPS (E. coli) to determine dusquetide effects on dose, gender and any extended impact on PD.

[7] = system: fractionated radiation-induced mucositis; assay: Hamster model of fractionated radiation-induced mucositis; type: in vivo
From the text: Dusquetide has been extensively studied in animal models of both mucosal damage (where damage associated molecular patterns (DAMPS)) trigger the innate defense system) and bacterial infection (where pathogen associated molecular patterns (PAMPS)) trigger the innate defense system).

[8] = system: human epithelial cell lines; assay: Signalling after dusquetide exposure in human epithelial cell lines; type: cell-based
[9] = system: dextran sulphate sodium (DSS)-induced colitis; conditions: Kudrimoti 2016, levels comparative to maximal steroid use; cited from earlier work
p62 = p62 (Homo sapiens, UniProt Q13501); conditions: Yu 2009; cited from earlier work
p62, sequence (Q13501 whole entry): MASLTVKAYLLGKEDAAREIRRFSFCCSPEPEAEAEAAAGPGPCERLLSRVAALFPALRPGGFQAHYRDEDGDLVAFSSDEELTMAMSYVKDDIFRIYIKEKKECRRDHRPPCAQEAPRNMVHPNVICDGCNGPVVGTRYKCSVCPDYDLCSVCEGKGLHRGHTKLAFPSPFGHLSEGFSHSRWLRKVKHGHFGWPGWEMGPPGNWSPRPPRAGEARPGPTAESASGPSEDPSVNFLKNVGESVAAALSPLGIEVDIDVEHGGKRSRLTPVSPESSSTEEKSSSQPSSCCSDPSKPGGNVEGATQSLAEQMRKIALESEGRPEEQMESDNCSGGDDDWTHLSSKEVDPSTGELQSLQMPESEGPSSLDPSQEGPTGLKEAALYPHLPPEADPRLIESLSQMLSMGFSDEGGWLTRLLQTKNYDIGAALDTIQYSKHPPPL

MRSA = assay: IV MRSA challenge model (bacteremia) in mice
[10] = longer term, 12-24 h after administration
[11] = short term, 1 to 4 h after administration, modest
[12] = hamster, fractionated radiation

Substance: RIVPA-NH2 [dusquetide, L-arginyl-L-isoleucyl-L-valyl-L-prolyl-L-alanine-amide]
- MCP-1 response to LPS challenge [1]: reduced
- TNFα response to LPS challenge [1]: unaffected
- bacterial growth [2]: reduced bacterial growth
- survival [2]: increased survival
- IL-6 response of macrophage cell line [3]: suppressing
- IL-10 response of macrophage cell line [3]: suppressing
- TNFα response of macrophage cell line [3]: suppressing
- IL-1β response to LPS [4, 10]: mild elevations
- MIP-la response to LPS [4, 10]: mild elevations
- IL-1β response to LPS [4, 11]: decreases
- MIP-la response to LPS [4, 11]: decreases
- IL-1ra response to LPS ([4]; blood from dusquetide-treated NHP): marked increase
- responses of most analytes (47 cytokines and chemokines) to LPS ([4]; primate, dusquetide in vivo before culture): insignificant changes
- duration of mucositis [5]: decreased
- intensity of mucositis [5]: decreased
- safety of administration [6]: safely administered
- efficacy by regimen ([7]; every 2nd or 3rd day at 25 mg/kg): effective
- duration of SOM [7, 12]: decrease
- intensity of SOM [7, 12]: decrease
- C/EBPB activation [8]: transient activation
- p38 MAP kinase activation [8]: transient activation
- protection of the lower GI [9]: further protection
- p62 interaction with PKCS (p62): no effect
- p62 interaction with RIP1 (p62): selectively alters
- p62 interaction with TRAF6 (p62): no effect
- relation to antibiotic administration (MRSA; IV, therapeutic or prophylactic administration): complementary to antibiotic administration
- IV dose at which efficacy is consistently seen (MRSA; mice, IV): greater than or equal to 5 mg/kg
- duration of PD effects of a single dose (MRSA; mice, depending on the dose level): up to 5 days
- circulating half-life (MRSA; mouse, in vivo): short
